From patent US4454155A, “Pharmaceutical compositions containing a mono-substituted derivative of 4-phenyl-4-oxobuten-2-oic acid, and methods of using them in treating gastric and gastroduodenal ailments” (Roussel UCLAF, priority 1981, dated 1984)

How the values were obtained:
Acute toxicity = details: mouse, in vivo, po; per os, mice
Experimental: (3) Determination of the acute toxicity
The LD50 was evaluated after administration of the product per os in mice.

[1] = test system: total acidity of the gastric juice; assay: Gastric anti-secretory activity (Shay, pylorus-ligated rats); format: in vivo, rat; details: 10 mg/kg, intraduodenally, male rats, 3 hours
Experimental: (1) Determination of the gastric anti-secretory activity
The technique used is described by H. Shay et al in Gastroenterology 5, 43 (1945).
Male rats were used, each having a weight of about 200 g (ten animals per lot), which had been without food for 48 hours but were allowed 8% glucose solution ad libitum. After the rats were slightly anesthetized with ether, the pylorus of each was ligated. At the end of the operation, different doses of the product to be tested, or in the case of the control animals a 0.5% carboxymethyl cellulose solution, were administered intraduodenally, whereupon the abdominal incision was sutured.
Three hours later, the animals were sacrificed and their stomachs removed after ligating the esophagus. The gastric juice was removed and centrifuged. The volume of gastric juice obtained was then measured and the total acidity of the gastric juice obtained was established by titrating a 100 μL sample of gastric juice to a pH of 7 with 1/10 N Sodium hydroxide aqueous solution. The total acidity was determined.
The percentage of variation of total acidity between the results from test animals and results from control animals were calculated.

[2] = test system: ulcers in the stomachs of rats; assay: Anti-ulcer activity, stress ulcer (stress and cold); format: in vivo, rat; details: 10 mg/kg, by esophageal tube, female rats, stress at 8° C. for two hours
Experimental: (2) Determination of the anti-ulcer activity
The technique consists in inducing ulcers in the stomachs of rats by stress (stress and cold). The technique used is described by E. C. Senay and R. J. Levine, Proc. Soc. Ex. Biol. 124, 1221 (1967).
Female rats of 150 g (5 animals per lot) were used which had fasted for 48 hours with water ad libitum and glucose solution for 8 hours. The animals were given the test product, or a 0.5% solution of carboxymethyl cellulose in the case of the control animals, by esophageal tube. Two hours later, the animals were wrapped in a jacket of netting. Their paws were bound and the entire unit was placed in a refrigerator at 8° C. for two hours. The rats were freed and killed with ether. Their stomachs were removed, opened along the greater curvature and examined with a binocular magnifier. The seriousness of the lesions was rated from 0 to 3 for each stomach.
The average intensity of the ulcerations was calculated for each lot of rats. The difference in the degree of ulceration between test animals and control animals was determined and calculated as a percentage.

O=C(O)C=CC(=O)c1ccccc1O [Example 1, 4-(2-hydroxyphenyl)-4-oxobuten-2-oic acid]
LD50 (Acute toxicity): 350 mg/kg
Anti-secretory activity (% variation as compared with the controls), Acid Concentration [1]: -65%
Anti-ulcer activity (% variation as compared with the controls), Ulceration [2]: -35%

COc1ccc(C(=O)C=CC(=O)O)cc1 [Example 2, 4-(4-methyoxyphenyl)-4-oxobuten-2-oic acid]
LD50 (Acute toxicity): 500 mg/kg
Anti-secretory activity (% variation as compared with the controls), Acid Concentration [1]: -66%
Anti-ulcer activity (% variation as compared with the controls), Ulceration [2]: -73%
